# Reference: US7846901B2, “Method for inhibiting or treating intestinal damage caused by radiotherapy or chemotherapy comprising administering substance-P” (University-Industry Cooperation Group of Kyunghee University, priority 2007, dated 2010)
# “Also recorded” adds a separate entry of the source. Where no end group is shown, it is not given here.
# Assays:
# Type in all cases: in vivo, C57b1/6 mice
# crypt cells [1] = test: TUNEL assay for apoptosis of crypt cells after gamma ray irradiation
# Description: (§1) 8-week-old C57b1/6 mice (Central Lab Animal Inc., Seoul, Korea) were irradiated with gamma rays to establish an animal model of gastrointestinal damage, and gastrointestinal protective and regenerative effects of Substance-P were then examined.
# (§2) For this purpose, C57b1/6 mice were divided into two groups, an experimental group and a control group, each consisting of 5 animals (n=5). 100 nM of Substance-P (Cat. No. 05-23-0600, Calbiochem) was injected to the experimental group mice via tail vein, 24 hours prior to gamma ray irradiation. 24 hours later, animals were irradiated with a gamma irradiator at a dose of 7.6 Gy. Immediately after gamma ray irradiation, 100 nM of Substance-P was intravenously injected once more into animals of the experimental group. The control group was given PBS.
# 4.5 hours, 3 days, and 7 days later, mice of each group were euthanized by CO2 asphyxiation and then received abdominal incision. […]
# Dead cells were detected by fluorescence labeling of damaged DNA molecules through TUNEL assay using an In Situ Cell Death Detection Kit (Cat. No. 1 684 795, Roche Molecular Biochemicals).
# The tissue section slide was deparaffinized with xylene and hydrated in alcohol. […] Nuclear staining was carried out using 4′,6-diamidino-2-phenylindole (DAPI, Cat. No. D-9542, Sigma) and the stained tissue was examined in a green field of 515 to 565 nm under a fluorescence microscope.
# crypt cells [2] = test: Brd-U immunohistochemical staining for proliferation of crypt cells after gamma ray irradiation
# Description: as §1, §2
# (§3) Small intestines were isolated and fixed in a 3.7% formaldehyde solution for tissue fixation, for 1 to 2 days. Following the tissue processing process, the tissues were hardened in a paraffin block. The formalin-fixed paraffin tissues were sectioned to a 5 μm thickness using a microtome and then attached to a coated slide glass which was then dried, followed by TUNEL staining, Brd-U immunostaining and H&E staining. For Brd-U immunostaining, 2 hours prior to sacrifice of mice, 50 mg/kg of 5-bromo-2-deoxyuridine (Brd-U, Cat. No. B-9285, Sigma) was introduced into dividing cells by peritoneal injection.
# Proliferative effects of Substance-P on crypt cells were examined by Brd-U immunohistochemical staining.
# The tissue section slide was deparaffinized with xylene and hydrated in alcohol. The tissue section was pretreated with 2N HCl for 30 min, and endogenous peroxidase activity was blocked with addition of H2O2 for 10 min. The tissue section was treated with 0.3% Triton X-100 for 5 min to increase cell permeability. Then, 2% serum in a Vector ABC kit (PK-6100, Vector Laboratories Inc.) was added to block the cells. BrdU antibodies (Cat. No. 1 170 376, Roche Molecular Biochemicals) and 2% serum were diluted in a ratio of 6:100, followed by reaction at room temperature for 1 hour. […]
# [3] = system: crypt cells and villi of small intestine; test: H&E staining: crypt cell counts and villous heights after gamma ray irradiation
# Description: as §1, §2
# as §3, with “4.5 hours, 3 days, and 7 days later, mice of each group were euthanized by CO2 asphyxiation and then received abdominal incision. Small” for “Small”
# After the tissue section slide was H&E-stained and photographed, crypt cell counts and villous heights were measured and averaged, respectively.
# [4] = radiation-induced gastrointestinal damage in mice, vs non-treated control group
substance,measurement,setting,value
"Substance-P (RPKPQQFFGLM-NH2; ends and bridges not checked; UniProt P20366 58-68, looked up) [11-amino acid neuropeptide; Cat. No. 05-23-0600, Calbiochem]",apoptosis of crypt stem cells (TUNEL),"crypt cells [1]; 4.5 hours after 7.6 Gy gamma rays, Substance-P 100 nM i.v. 24 h before and immediately after irradiation, vs control group (PBS)",significant reduction in apoptosis of crypt stem cells
same,"apoptotic rate of crypt cells, summary statement",crypt cells [1]; [4],significantly lower apoptotic rate of crypt cells; also recorded: apoptosis of stem cells is decreased
same,BrdU staining of dividing crypt cells,"crypt cells [2]; Day 1 after gamma ray irradiation, with vs without Substance-P",no significant difference in staining of cells
same,BrdU staining of dividing crypt cells,crypt cells [2]; Day 3 after gamma ray irradiation,intense staining in large numbers of cells
same,"gastrointestinal recovery through crypt hyperplasia, conclusion from BrdU staining",crypt cells [2]; after gamma ray irradiation (FIG. 2),earlier gastrointestinal recovery
same,villous atrophy (villous height),"[3]; Day 3 after irradiation, vs group without Substance-P",less villous atrophy
same,number of viable crypt cells (crypt cell survival),"[3]; Days 1, 3 and 7 after irradiation (FIG. 3), vs group without Substance-P",higher number of viable crypt cells
same,"recovery of damaged crypt cells and villi / recovery time from gastrointestinal damage, summary statement",[3]; [4],faster recovery of damaged crypt cells and villi to a normal state; also recorded: recovery time from gastrointestinal damage is also shortened
